The record followed here is patent US11629171B2, “Beta-hairpin peptidomimetics” (POLYPHOR AG, priority 2017, dated 2023).

Values after ≈ are worked out from the molar mass of the structure shown. Where a SMILES comes first, the peptide text is derived from it. Bridges are numbered along the chain shown (N, C = ends). Roman numbers before positions name the chains, in order. [ ]: non-standard residue; d: D form. Tle = CC(C)(C)[C@H](N)C(=O)O; NMeV = CN[C@H](C(=O)O)C(C)C; Hiv = CC(C)[C@H](O)C(=O)O; dDab = NCC[C@@H](N)C(=O)O; hSer = N[C@@H](CCO)C(=O)O; Dab = NCC[C@H](N)C(=O)O; Dap = NC[C@H](N)C(=O)O

Data set [1] concerns Acinetobacter baumannii 872842. It is filed as cell-based. As to conditions: 872842. The procedure, abridged: (§1)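 Two-fold peptide dilutions in polysorbate 80-containing (0.002% final) cation-adjusted Mueller-Hinton II broth were inoculated with about 10^6 CFU/mL. The MIC was taken as the lowest concentration, in μg/mL, preventing visible growth at 18-20 hours and 35° C.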
In data set [2] the test system is Acinetobacter baumannii DSM 30008. The format is cell-based. As to conditions: DSM 30008. In outline: as §1
Data set [3] relates to Enterobacter cloacae 848840. The format is cell-based. As to conditions: 848840. In outline:
as §1

The next data set deals with Escherichia coli 926415. It is filed as cell-based. The conditions noted are these: 926415. The procedure, abridged: as §1
For data set [4], the system named is Escherichia coli ATCC 25922. The format is cell-based. As to conditions: ATCC 25922. The procedure, abridged: as §1
Data set [5] concerns Klebsiella pneumoniae 968733. The format is cell-based. As to conditions: 968733. In outline: as §1
The test system of data set [6] is Klebsiella pneumoniae SSI #3010. The format is cell-based. The conditions noted are these: SSI #3010. The procedure, abridged: as §1
Data set [7] has as its system Pseudomonas aeruginosa ATCC 27853. The format is cell-based. The conditions noted are these: ATCC 27853. In outline:
as §1

Data set [8] relates to human red blood cells (hRBC). Briefly: Hemolysis. The format is cell-based. The conditions noted are these: red cells of human, 1 h, 200. The procedure, abridged: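 Hemoglobin release from PBS-washed hRBC at 20% (v/v), incubated 1 h at 37° C with peptides at 200 μg/mL, is measured at 540 nm. Values are blank corrected and given as a fraction of Triton X-100 lysis × 100%.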

The next data set concerns male ICR mice. Briefly: Tolerability in a mouse model (Maximum Tolerated Dose assay). The format is in vivo. As to conditions: groups of 3. The protocol: The tolerability of the peptides was tested in a mouse model at Pharmacology Discovery Services Taiwan Ltd, Taipei, Taiwan. The peptides were administered subcutaneously (s.c.) at 30 mg/kg or 40 mg/kg, respectively; twice at a 12-hr interval, for assessment of possible adverse effects in the Maximum Tolerated Dose (MTD) assay in male ICR (Institute of Cancer Research) mice. The peptides were dissolved in 0.9% NaCl at the concentrations either of 6 or 8 mg/mL, respectively, based on the free base molecular weight. The pH values of dosing solutions were adjusted to 6.5-7.6 before s.c. administration. A dosing volume at 5 mL/kg and a concentration of 6 or 8 mg/mL, respectively, was applied. The fresh prepared stock solution were stored at 4° C. during the study. Male ICR mice weighing 23±3 g were provided by BioLasco Taiwan (under Charles River Laboratories Licensee). Animals were acclimated for 3 days prior to use and were confirmed to be in good health. The peptides were administered s.c. at 30 mg/kg or 40 mg/kg, respectively, twice at a 12-hr interval, to groups of 3 ICR male mice and observed for the presence of acute toxic symptoms (mortality, convulsions, tremors, muscle relaxation, sedation, etc.) and autonomic effects (diarrhea, salivation, lacrimation, vasodilation, piloerection, etc.) during the first 30 min. The peptides were administered again at a 12-hr (two total doses) interval, following the first dose. The animals were then observed again for the presence of acute toxic symptoms and autonomic effects during the first 30 min.

Setting [9] is: 2 × 40 mg/kg s.c. at a 12-hr interval.
Where [10] appears, read: 2 × 30 mg/kg s.c. at a 12-hr interval.

With `CC(=O)N[C@H](C(=O)N[C@H]1CSSC[C@@H](C(=O)N[C@H](C)C(=O)N[C@@H](CO)C(N)=O)NC(=O)[C@H](C(C)C)NC(=O)[C@H](CO)NC(=O)[C@H](Cc2c[nH]c3ccccc23)NC(=O)[C@H](CO)NC(=O)[C@@H](CCN)NC(=O)[C@H](CCC(=O)N[C@@H](CCN)C(=O)N[C@H](C(=O)N[C@@H](CN)C(=O)N[C@H]2CCNC(=O)[C@H]([C@@H](C)O)NC(=O)[C@H](CCN)NC(=O)[C@H](CCN)NC(=O)[C@H](CC(C)C)NC(=O)[C@@H](CC(C)C)NC(=O)[C@H](CCN)NC2=O)[C@@H](C)O)NC(=O)[C@H](CCN)NC(=O)[C@H](Cc2ccc(O)cc2)NC1=O)C(C)C` [Ex. 370] (I: Ac-VCY[Dab]E[dDab]SWSVC[dA]S-NH2 / II: [Dab]T[Dap][Dab][Dab][dL]L[Dab][Dab]T; disulfide I:2-I:11; amide I:5-II:N; lactam II:4-II:C), the MIC in data set [1] amounted to 0.5 µg/mL (≈ 0.202 µM); in data set [3], 0.125 µg/mL (≈ 0.0506 µM); in the data set on Escherichia coli 926415 it was 0.5 µg/mL (≈ 0.202 µM); in data set [5] it was 1 µg/mL (≈ 0.405 µM). Further, the “Acinetobacter baumannii DSM 30008 MIC” value in data set [2] worked out at 0.0625 µg/mL. The “Escherichia coli ATCC 25922 MIC” value in data set [4] was found to be 0.0625 µg/mL. Further, in data set [6], the “Klebsiella pneumoniae SSI #3010 MIC” value came out at 0.0625 µg/mL. Further, the “Pseudomonas aeruginosa ATCC 27853 MIC” value in data set [7] worked out at 0.125 µg/mL. The “Hemolysis at 200 μg/mL” value in data set [8] came to 2%. The Mortality and dose in the data set with male ICR mice (setting [9]) is 0/3 died at 2 × 40 mg/kg.
For the compound `CC(C)C[C@@H]1NC(=O)[C@@H](CC(C)C)NC(=O)[C@H](CCN)NC(=O)[C@@H](NC(=O)[C@H](CN)NC(=O)[C@@H](NC(=O)[C@H](CCN)NC(=O)CC[C@@H]2NC(=O)[C@H](CO)NC(=O)[C@H](Cc3ccc(O)cc3)NC(=O)[C@@H](NC(=O)[C@@H](O)C(C)C)CSSC[C@@H](C(=O)N[C@@H](CO)C(N)=O)NC(=O)[C@H](C(C)C)NC(=O)[C@H](CO)NC(=O)[C@H](Cc3c[nH]c4ccccc34)NC(=O)[C@H](CCN)NC(=O)[C@@H](CCN)NC2=O)[C@@H](C)O)CCNC(=O)[C@H]([C@@H](C)O)NC(=O)[C@H](CCN)NC(=O)[C@H](CCN)NC1=O` [Ex. 270] (I: H-[Hiv]CYSE[dDab][Dab]WSVCS-NH2 / II: [Dab]T[Dap][Dab][Dab][dL]L[Dab][Dab]T; disulfide I:2-I:11; amide I:5-II:N; lactam II:4-II:C), the MIC in data set [1] was 0.0625 µg/mL (≈ 0.0265 µM); in [2] it was 0.0625 µg/mL (≈ 0.0265 µM); in data set [3], 0.25 µg/mL (≈ 0.106 µM); in the data set with Escherichia coli 926415 it was 0.125 µg/mL (≈ 0.053 µM); in [4] it was 0.0625 µg/mL (≈ 0.0265 µM); in data set [5], 0.125 µg/mL (≈ 0.053 µM). Also, the MIC in [6] came out at 0.0625 µg/mL (≈ 0.0265 µM); in data set [7] it was 0.125 µg/mL (≈ 0.053 µM). The “Hemolysis at 200 μg/mL” value in [8] was below 1%. Also, the Mortality and dose with male ICR mice (setting [9]) is on record as 0/3 died at 2 × 40 mg/kg.
On to `CN[C@H](C(=O)N[C@H]1CSSC[C@@H](C(=O)N[C@@H](CO)C(N)=O)NC(=O)[C@H](C(C)C)NC(=O)[C@H](CO)NC(=O)[C@H](Cc2c[nH]c3ccccc23)NC(=O)[C@H](CCO)NC(=O)[C@@H](CCN)NC(=O)[C@H](CCC(=O)N[C@@H](CCN)C(=O)N[C@H](C(=O)N[C@@H](CCN)C(=O)N[C@H]2CCNC(=O)[C@H]([C@@H](C)O)NC(=O)[C@H](CCN)NC(=O)[C@H](CCN)NC(=O)[C@H](CC(C)C)NC(=O)[C@@H](CC(C)C)NC(=O)[C@H](CCN)NC2=O)[C@@H](C)O)NC(=O)[C@H](CCN)NC(=O)[C@H](Cc2ccc(O)cc2)NC1=O)C(C)C` [Ex. 43] (I: H-[NMeV]CY[Dab]E[dDab][hSer]WSVCS-NH2 / II: [Dab]T[Dab][Dab][Dab][dL]L[Dab][Dab]T; disulfide I:2-I:11; amide I:5-II:N; lactam II:4-II:C), for which the MIC worked out at 0.125 µg/mL (≈ 0.0521 µM) in data set [1]; 0.5 µg/mL (≈ 0.208 µM) in [2]; 2 µg/mL (≈ 0.834 µM) in [3]; 0.5 µg/mL (≈ 0.208 µM) against Escherichia coli 926415; 0.25 µg/mL (≈ 0.104 µM) in data set [4]; 2 µg/mL (≈ 0.834 µM) in data set [5]. For the same compound, the MIC in data set [6] came out at 0.25 µg/mL (≈ 0.104 µM); in data set [7], 0.5 µg/mL (≈ 0.208 µM). Moreover, the “Hemolysis at 200 μg/mL” value in [8] is listed as below 1%. Besides, the Mortality and dose in the data set with male ICR mice (setting [10]) is given as 0/3 died at 2 × 30 mg/kg.
As for `CC(=O)N[C@H](C(=O)N[C@H]1CSSC[C@@H](C(=O)N[C@@H](CO)C(N)=O)NC(=O)[C@H](C(C)(C)C)NC(=O)[C@H](CO)NC(=O)[C@H](Cc2c[nH]c3ccccc23)NC(=O)[C@H](CCN)NC(=O)[C@@H](CCN)NC(=O)[C@H](CCC(=O)N[C@@H](CCN)C(=O)N[C@H](C(=O)N[C@@H](CN)C(=O)N[C@H]2CCNC(=O)[C@H]([C@@H](C)O)NC(=O)[C@H](CCN)NC(=O)[C@H](CCN)NC(=O)[C@H]([C@@H](C)O)NC(=O)[C@@H](CC(C)C)NC(=O)[C@H](CCN)NC2=O)[C@@H](C)O)NC(=O)[C@H](CO)NC(=O)[C@H](Cc2ccc(O)cc2)NC1=O)C(C)C` [Ex. 261] (I: Ac-VCYSE[dDab][Dab]WS[Tle]CS-NH2 / II: [Dab]T[Dap][Dab][Dab][dL]T[Dab][Dab]T; disulfide I:2-I:11; amide I:5-II:N; lactam II:4-II:C), the MIC in [1] was 0.0625 µg/mL (≈ 0.026 µM); in data set [2], 0.03125 µg/mL (≈ 0.013 µM); in [3], 0.125 µg/mL (≈ 0.0521 µM); in the data set on Escherichia coli 926415, 0.125 µg/mL (≈ 0.0521 µM); in data set [4], 0.03125 µg/mL (≈ 0.013 µM); in data set [5], 0.25 µg/mL (≈ 0.104 µM). In addition, the MIC in data set [6] is 0.0625 µg/mL (≈ 0.026 µM); in [7], 0.125 µg/mL (≈ 0.0521 µM). In [8], the “Hemolysis at 200 μg/mL” value came out at 1%. Further, in the data set with male ICR mice (setting [10]), the Mortality and dose is reported as 0/3 died at 2 × 30 mg/kg.
Regarding `CC(=O)N[C@H](C(=O)N[C@H]1CSSC[C@@H](C(=O)N[C@@H](CO)C(N)=O)NC(=O)[C@H](C(C)C)NC(=O)[C@H](CO)NC(=O)[C@H](Cc2c[nH]c3ccccc23)NC(=O)[C@H](CO)NC(=O)[C@@H](CCN)NC(=O)[C@H](CCC(=O)N[C@H](CCN)C(=O)N[C@H](C(=O)N[C@@H](CN)C(=O)N[C@H]2CCNC(=O)[C@H]([C@@H](C)O)NC(=O)[C@H](CCN)NC(=O)[C@H](CCN)NC(=O)[C@H](CC(C)C)NC(=O)[C@@H](CC(C)C)NC(=O)[C@H](CCN)NC2=O)[C@@H](C)O)NC(=O)[C@H](CCN)NC(=O)[C@H](Cc2ccc(O)cc2)NC1=O)C(C)C` [Ex. 310] (I: Ac-VCY[Dab]E[dDab]SWSVCS-NH2 / II: [dDab]T[Dap][Dab][Dab][dL]L[Dab][Dab]T; disulfide I:2-I:11; amide I:5-II:N; lactam II:4-II:C), the MIC (in data set [1]; in data set [3]; against Escherichia coli 926415; in data set [5]) was 0.0625 µg/mL (≈ 0.0261 µM) in each case. Further, the “Acinetobacter baumannii DSM 30008 MIC” value in [2] was determined as 0.0625 µg/mL. In data set [4], the “Escherichia coli ATCC 25922 MIC” value came to 0.03125 µg/mL. Further, in data set [6], the “Klebsiella pneumoniae SSI #3010 MIC” value was 0.0625 µg/mL. The “Pseudomonas aeruginosa ATCC 27853 MIC” value in data set [7] came out at 0.125 µg/mL. Besides, in [8], the “Hemolysis at 200 μg/mL” value was below 1%. Further, the Mortality and dose in the data set with male ICR mice (setting [9]) is 0/3 died at 2 × 40 mg/kg.

As a reminder, the MIC is the least concentration at which growth counts as inhibited.
